# Data as given in BindingDB's records for PubMed 8450829 (Cnrs, 1993).
# Molecular target: 5-hydroxytryptamine receptor 5B (Mus musculus, UniProt P31387)
# Sequence (P31387 whole entry): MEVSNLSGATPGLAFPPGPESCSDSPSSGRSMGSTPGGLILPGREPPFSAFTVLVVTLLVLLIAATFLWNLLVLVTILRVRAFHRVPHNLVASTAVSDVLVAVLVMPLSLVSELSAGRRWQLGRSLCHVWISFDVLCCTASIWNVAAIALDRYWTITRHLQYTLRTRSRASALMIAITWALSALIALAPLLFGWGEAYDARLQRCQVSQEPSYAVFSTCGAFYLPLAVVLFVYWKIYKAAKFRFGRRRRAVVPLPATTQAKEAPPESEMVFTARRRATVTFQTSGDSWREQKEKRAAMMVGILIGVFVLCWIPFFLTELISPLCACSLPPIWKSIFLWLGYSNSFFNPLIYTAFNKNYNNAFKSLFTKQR
row,Structure (SMILES),Ki [µM]
1,CNS(=O)(=O)Cc1ccc2[nH]cc(CCN(C)C)c2c1 [Sumax],7.94
2,FC(F)(F)c1cccc(N2CCNCC2)c1 [TFMPP],3.98
3,"O=C(c1ccc(F)cc1)C1CCN(CCn2c(=O)[nH]c3ccccc3c2=O)CC1 [3-(2-{4-[(4-fluorophenyl)carbonyl]piperidin-1-yl}ethyl)-1,2,3,4-tetrahydroquinazoline-2,4-dione]",1.58
4,"CSc1ccc2c(c1)C(N1CCN(C)CC1)Cc1ccccc1S2 (stereo not drawn) [methanesulfonic acid;1-methyl-4-(3-methylsulfanyl-5,6-dihydrobenzo[b][1]benzothiepin-5-yl)piperazine]",0.0158
5,"NCC(O)c1ccc(O)c(O)c1 (stereo not drawn) [Noradrenaline,(+)]",> 10
6,"COc1ccc2[nH]cc(C3=CCNCC3)c2c1 [5-Methoxy-3-(1,2,3,6-tetrahydro-pyridin-4-yl)-1H-indole(RU-24969)]",0.398
7,NCCc1c[nH]c2ccc(C(N)=O)cc12 [[3H]-5-carboxamidotryptamine],0.0398
8,CC[C@@H](CO)NC(=O)[C@@H]1C=C2c3cccc4c3c(cn4C)C[C@H]2N(C)C1,0.126
9,NCCc1c[nH]c2ccc(O)cc12 [[3H]-5-HT],0.251
10,CCCN(CCC)C1CCc2cccc(O)c2C1 (stereo not drawn),0.398
11,"CN1C[C@H](C(=O)N[C@]2(C)O[C@@]3(O)[C@@H]4CCCN4C(=O)[C@H](Cc4ccccc4)N3C2=O)C=C2c3cccc4[nH]cc(c34)C[C@H]21 [12'-hydroxy-2'-methyl-5'alpha-(phenylmethyl)ergotaman-3',6',18-trione]",0.00316
12,CN(C)CCc1c[nH]c2ccc(O)cc12 [3-[2-(dimethylamino)ethyl]indol-5-ol],1.58
13,NCCc1ccc(O)c(O)c1,> 10
